The conditions of this series: Liquid, Closed cell (Static) method.

From the NIST ThermoML archive (doi:10.1016/j.fluid.2016.05.032) come the findings set out here.

± gives the expanded uncertainty stated by the source.

Usually vapor or sublimation pressure stands for the pressure of vapour in equilibrium with the condensed phase.

As to `Cc1cccc(C)c1` [1,3-dimethylbenzene], the “vapor or sublimation pressure” value (345.15 K) was found to be 11 ± 0.058 kPa; the “vapor or sublimation pressure” value (350.15 K) amounted to 13.44 ± 0.07 kPa; the “vapor or sublimation pressure” value (355.15 K) stood at 16.32 ± 0.083 kPa; the “vapor or sublimation pressure” value (360.15 K) amounted to 19.68 ± 0.098 kPa; the “vapor or sublimation pressure” value (365.15 K) worked out at 23.59 ± 0.1 kPa.
Consider `CC(O)COC(C)COC(C)CO` (stereo not given) [2-[2-(2-hydroxypropoxy)propoxy]-1-propanol], for which the “vapor or sublimation pressure” value came out at 0.039 ± 0.006 kPa (350.15 K); 0.063 ± 0.016 kPa (357.15 K); 0.098 ± 0.009 kPa (364.15 K); 0.15 ± 0.018 kPa (371.15 K); 0.224 ± 0.009 kPa (378.15 K).
Turning to `Cc1ccc(C)cc1` [1,4-dimethylbenzene], the “vapor or sublimation pressure” value reads like this: (345.15 K) 11.39 ± 0.061 kPa; (350.15 K) 13.9 ± 0.071 kPa; (355.15 K) 16.85 ± 0.085 kPa; (360.15 K) 20.3 ± 0.095 kPa; (365.15 K) 24.3 ± 0.1 kPa.
On to `CCc1ccccc1` [ethylbenzene], for which the “vapor or sublimation pressure” value is on record as 4.076 ± 0.038 kPa (320.15 K); 5.41 ± 0.047 kPa (326.15 K); 7.093 ± 0.052 kPa (332.15 K); 9.194 ± 0.058 kPa (338.15 K); 11.79 ± 0.071 kPa (344.15 K).
As for `Cc1ccccc1C` [1,2-dimethylbenzene], the “vapor or sublimation pressure” value (345.15 K) is listed as 9.182 ± 0.061 kPa; the “vapor or sublimation pressure” value (350.15 K) was found to be 11.27 ± 0.074 kPa; the “vapor or sublimation pressure” value (355.15 K) is 13.73 ± 0.081 kPa; the “vapor or sublimation pressure” value (360.15 K) is 16.62 ± 0.095 kPa; the “vapor or sublimation pressure” value (365.15 K) is listed as 20 ± 0.11 kPa.
Regarding `Cc1ccccc1` [toluene], the “vapor or sublimation pressure” value (315.15 K) came out at 8.622 ± 0.044 kPa; the “vapor or sublimation pressure” value (320.15 K) is on record as 10.77 ± 0.052 kPa; the “vapor or sublimation pressure” value (325.15 K) is recorded as 13.34 ± 0.059 kPa; the “vapor or sublimation pressure” value (330.15 K) is on record as 16.4 ± 0.071 kPa; the “vapor or sublimation pressure” value (335.15 K) is recorded as 20.02 ± 0.08 kPa.
